Values quoted from earlier work in patent publication US9714271B2 (ContraVir Pharmaceuticals, Inc., priority 2010, dated 2017).

Target: CyP-A (Homo sapiens, UniProt P62937)
Sequence (P62937 whole entry): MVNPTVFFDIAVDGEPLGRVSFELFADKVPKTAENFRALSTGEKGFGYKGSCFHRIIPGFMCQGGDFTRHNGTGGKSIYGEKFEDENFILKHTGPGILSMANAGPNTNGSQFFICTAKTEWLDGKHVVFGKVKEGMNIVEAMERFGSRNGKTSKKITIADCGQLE

binding affinity for CyP-A	Structure (SMILES)
retains binding affinity for CyP-A	C/C=C/C[C@@H](C)[C@@H](O)[C@H]1C(=O)N[C@@H](CC)C(=O)N(C)[C@H](C)C(=O)N(CC)[C@@H](C(C)C)C(=O)N[C@@H](C(C)C)C(=O)N(C)[C@@H](CC(C)C)C(=O)N[C@@H](C)C(=O)N[C@H](C)C(=O)N(C)[C@@H](CC(C)C)C(=O)N(C)[C@@H](CC(C)C)C(=O)N(C)[C@@H](C(C)C)C(=O)N1C [DEBIO 025, MeAla^3EtVal^4-Cyclosporin]
retains binding affinity for CyP-A	C/C=C/C[C@@H](C)[C@@H](O)[C@H]1C(=O)N[C@@H](CC)C(=O)N(C)[C@H](SCCN(C)C)C(=O)N(C)[C@@H](CC(C)(C)O)C(=O)N[C@@H](C(C)C)C(=O)N(C)[C@@H](CC(C)C)C(=O)N[C@@H](C)C(=O)N[C@H](C)C(=O)N(C)[C@@H](CC(C)C)C(=O)N(C)[C@@H](CC(C)C)C(=O)N(C)[C@@H](C(C)C)C(=O)N1C [SCY-635, DimethylaminoethylthioSar^3-hydroxyLeu^4-Cyclosporin]

Structure (SMILES)	binding affinity for CyP-A
C/C=C/C[C@@H](C)[C@@H](O)[C@H]1C(=O)N[C@@H](CC)C(=O)N(C)CC(=O)N(C)[C@@H]([C@@H](C)CC)C(=O)N[C@@H](C(C)C)C(=O)N(C)[C@@H](CC(C)C)C(=O)N[C@@H](C)C(=O)N[C@H](C)C(=O)N(C)[C@@H](CC(C)C)C(=O)N(C)[C@@H](CC(C)C)C(=O)N(C)[C@@H](C(C)C)C(=O)N1C [NIM 811, Melle^4-Cyclosporine]	retains binding affinity for CyP-A
